# Calls of active or inactive are those of the source. The calls are words filed in the database; no cut-off is given here.
# How the values were obtained:
# [1] = Drug uptake in human HepG2 cells at 1 to 10 uM incubated for 5 mins at 4 degreeC by ICP-MS analysis; assay type: ADME, cell-based; settings: hepg2, 5 min, dose 1-10 µM
# U-937 [2] = assay: Induction of cell cycle arrest in human U-937 cells overexpressing p53-V272M mutant assessed as upregulation of GADD45A gene expression by RT-qPCR analysis; assay type: functional, cell-based
# NB-4 [3] = assay: Induction of granulocytic differentiation in human NB4 cells assessed as increase in CD11b expression at 9 uM incubated for 1 hrs followed by replacement with fresh culture medium for 48 hrs by flow cytometry analysis (reference value: 1.44%); assay type: functional
# U-937 [4] = assay: Induction of senescence in human U-937 cells harboring p53-V272M mutant assessed as increase in SA-beta-gal positive cells at 0.5 to 8 uM pretreated for 1 hr followed by culturing in fresh medium for 8 hrs by […] microscopic analysis; assay type: functional, cell-based; settings: dose 0.5-8 µM
# U-937 [5] = assay: Upregulation of p21 protein expression in human U-937 cells overexpressing p53-V272M mutant at 0.1 to 0.5 uM pretreated for 1 hr followed by culturing in fresh medium for 16 hrs by Western blot analysis; assay type: functional, cell-based; settings: dose 0.1-0.5 µM
# U-937 [6] = assay: Cytotoxicity against p53 null human U-937 cells harboring p53 V272M mutant incubated for 48 hrs by CCK-8 assay; assay type: functional, cell-based; settings: U-937, 48 h
# NB-4 [7] = assay: Induction of apoptosis in human NB4 cells assessed as necrotic cells at 27 uM preincubated for 1 hrs followed by replacement with fresh culture medium and measured after 24 hrs by Annexin V-FITC/7AAD staining based flow cytometry assay (reference value: 0.18%); assay type: functional
# HL-60 [8] = assay: Upregulation of PUMA protein expression in human HL-60 cells overexpressing p53-V272M mutant pretreated for 1 hr followed by culturing in fresh medium for 16 hrs by Western blot analysis; assay type: functional, cell-based
# U-937 [9] = assay: Upregulation of PUMA protein expression in human U-937 cells overexpressing p53-V272M mutant at 0.1 to 0.5 uM pretreated for 1 hr followed by culturing in fresh medium for 16 hrs by Western blot analysis; assay type: functional, cell-based; settings: dose 0.1-0.5 µM
# [10] = system: Cellular tumor antigen p53 (Homo sapiens), P04637 [V272M]; assay: Restoration of p53-V272M mutant transcriptional activity on PUMA promoter in human NCI-H1299 cells at 10 uM pretreated with -auranofin for 10 mins followed by compound addition for 10 mins and further incubation in fresh medium for 24 hrs by firefly/renilla based luciferase reporter assay; assay type: cell-based
# NB-4 [11] = assay: Induction of apoptosis in human NB4 cells assessed as necrotic cells at 9 uM preincubated for 1 hrs followed by replacement with fresh culture medium and measured after 24 hrs by Annexin V-FITC/7AAD staining based flow cytometry assay (reference value: 0.16%); assay type: functional
# NCI-H1299 [12] = assay: Upregulation of CDKN1A mRNA expression in human NCI-H1299 cells overexpressing p53-V272M mutant at 2 uM pretreated for 1 hr followed by culturing in fresh medium for 8 hrs by RT-qPCR analysis; assay type: functional, cell-based
# U-937 [13] = assay: Antitumor activity against GFP-tagged human U-937 cells harboring p53 V272M mutant xenografted in M-NSG mouse assessed as decrease in leukemia cell population in spleen at 25 mg/kg, ip administered for 9 days starting from 7 days post inoculation and measured on day 2,6 and 9 by FACS analysis; assay type: functional, organism-based; settings: time 9.0 day
# [14] = target: PML-RARalpha (Homo sapiens) (UniProt P10276+P29590); assay: Induction of PML/RARalpha degradation in human NB4 cells assessed as downregulation of P2RY2 mRNA expression incubated for 1 hrs followed by replacement with fresh culture medium for 6 hrs by RT-qPCR analysis; assay type: cell-based; settings: dose 0.3-3 µM
# HL-60 [15] = assay: Upregulation of PUMA mRNA expression in human HL-60 cells overexpressing p53-V272M mutant at 2 uM pretreated for 1 hr followed by culturing in fresh medium for 8 hrs by RT-qPCR analysis; assay type: functional, cell-based
# U-937 [16] = assay: Cytotoxicity against p53 null human U-937 cells harboring empty vector incubated for 48 hrs by CCK-8 assay; assay type: functional, cell-based; settings: U-937, 48 h
# HepG2 = assay: Impairment of thiol-mediated drug uptake in human HepG2 cells assessed as reduction in arsenic level at 10 uM pretreated with N-ethylmaleimide for 30 mins followed by compound addition and measured after 10 mins by ICP-MS analysis relative to control; assay type: ADME, cell-based; design: scale not given: the % may be the effect or the level left; settings: hepg2, 10 min
# NB-4 [17] = assay: Induction of granulocytic differentiation in human NB4 cells assessed as CD11b positive cells at 9 uM incubated for 1 hrs followed by replacement with fresh culture medium for 48 hrs by flow cytometry analysis relative to control; assay type: functional
# HL-60 [18] = assay: Upregulation of p21 protein expression in human HL-60 cells overexpressing p53-V272M mutant pretreated for 1 hr followed by culturing in fresh medium for 16 hrs by Western blot analysis; assay type: functional, cell-based
# NB-4 [19] = assay: Induction of apoptosis in human NB4 cells assessed as viable cells at 3 uM preincubated for 1 hrs followed by replacement with fresh culture medium and measured after 24 hrs by Annexin V-FITC/7AAD staining based flow cytometry assay (reference value: 94%); assay type: functional; settings: read-out: Activity
# U-937 [20] = assay: Antitumor activity against human U-937 cells harboring p53 V272M mutant xenografted in M-NSG mouse assessed as median survival at 25 mg/kg, ip administered daily for 11 days (reference value: 11 day); assay type: functional
# U-937 [21] = assay: Induction of intrinsic apoptosis in human U-937 cells overexpressing p53-V272M mutant assessed as upregulation of PUMA gene expression by RT-qPCR analysis; assay type: functional, cell-based
# [22] = Toxicity in M-NSG mouse xenografted with luciferase transduced human U-937 cells harboring p53 V272M mutant assessed as reduction in body weight at 10 mg/kg, iv measured for 8 days post administration; assay type: organism-based; settings: in vivo, 192 h, time 8 day
# U-937 [23] = assay: Inhibition of colony formation in human U-937 cells harboring p53-V272M mutant at 0.5 to 8 uM pretreated for 1 hr followed by culturing in fresh medium and measured on day 14 by crystal violet staining based assay; assay type: functional, cell-based; settings: dose 0.5-8 µM
# NCI-H1299 [24] = assay: Upregulation of MDM2 mRNA expression in human NCI-H1299 cells overexpressing p53-V272M mutant at 2 uM pretreated for 1 hr followed by culturing in fresh medium for 8 hrs by RT-qPCR analysis; assay type: functional, cell-based
# [25] = Drug uptake in human HepG2 cells assessed as fold increase in arsenic accumulation at 10 uM incubated for 10 mins by ICP-MS analysis; assay type: ADME, cell-based; settings: hepg2, 10 min
# NCI-H1299 [26] = assay: Upregulation of MDM2 protein expression in human NCI-H1299 cells overexpressing p53-V272M mutant pretreated for 1 hr followed by culturing in fresh medium for 16 hrs by Western blot analysis; assay type: functional, cell-based
# [27] = Toxicity in M-NSG mouse xenografted with human U-937 cells harboring p53 V272M mutant assessed as reduction in body weight at 25 mg/kg, ip administered for 11 days and measured on day 18; assay type: organism-based; settings: in vivo, 432 h, time 18 day
# HL-60 [28] = assay: Inhibition of colony formation in human HL-60 cells harboring p53-V272M mutant at 0.2 to 3.2 uM pretreated for 1 hr followed by culturing in fresh medium and measured on day 18 by crystal violet staining based assay; assay type: functional, cell-based; settings: dose 0.2-3.2 µM
# Sequence of PML-RARalpha (Homo sapiens) (P10276 whole entry, looked up): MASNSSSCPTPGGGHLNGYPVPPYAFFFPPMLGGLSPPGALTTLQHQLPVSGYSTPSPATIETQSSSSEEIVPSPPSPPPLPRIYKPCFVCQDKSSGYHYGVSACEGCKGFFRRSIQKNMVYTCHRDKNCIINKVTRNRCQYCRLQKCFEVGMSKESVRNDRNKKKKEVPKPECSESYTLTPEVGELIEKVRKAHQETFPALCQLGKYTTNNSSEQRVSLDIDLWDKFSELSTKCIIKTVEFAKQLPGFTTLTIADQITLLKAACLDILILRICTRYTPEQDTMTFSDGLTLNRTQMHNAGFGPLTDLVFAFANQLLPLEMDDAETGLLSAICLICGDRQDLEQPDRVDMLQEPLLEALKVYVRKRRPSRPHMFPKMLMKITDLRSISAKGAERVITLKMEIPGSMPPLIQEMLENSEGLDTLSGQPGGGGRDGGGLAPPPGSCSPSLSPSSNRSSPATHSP
# Sequence of PML-RARalpha (Homo sapiens) (P29590 whole entry, looked up): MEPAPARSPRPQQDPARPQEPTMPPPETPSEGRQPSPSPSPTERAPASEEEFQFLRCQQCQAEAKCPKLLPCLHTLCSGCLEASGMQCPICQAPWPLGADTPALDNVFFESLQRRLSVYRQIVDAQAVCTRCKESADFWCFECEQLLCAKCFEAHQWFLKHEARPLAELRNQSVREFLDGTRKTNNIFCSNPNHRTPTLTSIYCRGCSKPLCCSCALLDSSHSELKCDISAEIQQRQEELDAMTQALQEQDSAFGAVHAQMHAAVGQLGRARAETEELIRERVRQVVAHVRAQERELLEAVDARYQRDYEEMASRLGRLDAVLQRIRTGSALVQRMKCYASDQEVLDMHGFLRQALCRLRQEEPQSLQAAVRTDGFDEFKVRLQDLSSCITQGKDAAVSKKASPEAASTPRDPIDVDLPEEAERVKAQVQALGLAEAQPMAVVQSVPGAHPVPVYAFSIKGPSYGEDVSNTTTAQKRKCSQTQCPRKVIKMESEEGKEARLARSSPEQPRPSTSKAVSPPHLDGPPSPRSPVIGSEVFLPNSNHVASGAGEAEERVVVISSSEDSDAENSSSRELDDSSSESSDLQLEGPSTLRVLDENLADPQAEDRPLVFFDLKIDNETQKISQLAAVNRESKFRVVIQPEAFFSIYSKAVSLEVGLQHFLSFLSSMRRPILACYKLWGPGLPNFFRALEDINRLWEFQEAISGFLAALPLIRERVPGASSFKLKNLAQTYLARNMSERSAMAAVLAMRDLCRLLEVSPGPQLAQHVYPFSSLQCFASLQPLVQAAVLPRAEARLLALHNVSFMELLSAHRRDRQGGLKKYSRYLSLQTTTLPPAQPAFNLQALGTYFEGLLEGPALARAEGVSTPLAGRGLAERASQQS
compound,measurement,setting,value
CC(=O)OC[C@H]1O[C@@H](S[As]2SCCS2)[C@H](OC(C)=O)[C@@H](OC(C)=O)[C@@H]1OC(C)=O,Drug uptake,[1],Not Active
same,Activity,U-937 [2],Active
same,Activity,NB-4 [3],19%
same,Activity,U-937 [4],inactive
same,Activity,U-937 [5],Active
same,IC50,U-937 [6],230 nM
same,Activity,NB-4 [7],1.3%
same,Activity,HL-60 [8],Active
same,Activity,U-937 [9],Active
same,Activity,[10],inactive
same,Activity,NB-4 [11],0.26%
same,Activity,NCI-H1299 [12],Active
same,Activity,U-937 [13],Active
same,Activity,[14],Dose-Dependent Effect
same,Activity,HL-60 [15],Active
same,IC50,U-937 [16],2100 nM
same,Activity,HepG2,~ 90%
same,Activity,NB-4 [17],20.9%
same,Activity,HL-60 [18],Active
same,viability at 3 µM,NB-4 [19],91.1%
same,MST,U-937 [20],18 days
same,Activity,U-937 [21],Active
same,Activity,[22],Non-Toxic
same,inhibition,U-937 [23],Active
same,Activity,NCI-H1299 [24],Active
same,fold change (FC),[25],19
same,Activity,NCI-H1299 [26],Active
same,Activity,[27],Non-Toxic
same,inhibition,HL-60 [28],Active

# Source: ChEMBL document CHEMBL5375988, “AcGlcAs: A Novel P53-Targeting Arsenical with Potent Cellular Uptake and Cancer Cell Selectivity” (J Med Chem, 2023)
